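Cells were grown in 96-well plates and exposed to each compound for 48 hours at five concentrations; endpoints were interpolated linearly between bracketing concentrations, or set to the highest concentration if not reached. GI50: concentration for 50% inhibition of growth.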 Calls of active or inactive are those of the source. Rule as the data show it: active = GI50 up to about 1.1 µM and inactive = higher.
Key:
Assay in all cases: NCI-60 cell line screen, 48 h
T47D = system: T47D
MDA-N = system: MDA-N
SF-268 = system: SF-268
SK-OV-3 = system: SK-OV-3
M14 = system: M14
SW-620 = system: SW-620
UO-31 = system: UO-31
UACC-62 = system: UACC-62
OVCAR-5 = system: OVCAR-5
OVCAR-3 = system: OVCAR-3
SNB-19 = system: SNB-19
NCI-H23 = system: NCI-H23
A549 = system: A549
HT-29 = system: HT-29
HCT-116 = system: HCT-116
OVCAR-4 = system: OVCAR-4
CCRF-CEM = system: CCRF-CEM
SK-MEL-5 = system: SK-MEL-5
U-251 = system: U-251
SNB-75 = system: SNB-75
PC-3 = system: PC-3
HOP-92 = system: HOP-92
NCI-H226 = system: NCI-H226
SK-MEL-28 = system: SK-MEL-28
MCF7 = system: MCF7
NCI-H522 = system: NCI-H522
SN12C = system: SN12C
K562 = system: K562
786-0 = system: 786-0
EKVX = system: EKVX
MDA-MB-435 = system: MDA-MB-435
HCC 2998 = system: HCC 2998
SR = system: SR
NCI-H460 = system: NCI-H460
A498 = system: A498
ACHN = system: ACHN
DU-145 = system: DU-145
COLO 205 = system: COLO 205
BT-549 = system: BT-549
LOX IMVI = system: LOX IMVI
SK-MEL-2 = system: SK-MEL-2
SF-295 = system: SF-295
HL-60 = system: HL-60
RPMI-8226 = system: RPMI-8226
HOP-62 = system: HOP-62
MDA-MB-231 = system: MDA-MB-231
IGROV-1 = system: IGROV-1
CAKI-1 = system: CAKI-1
OVCAR-8 = system: OVCAR-8
MOLT-4 = system: MOLT-4
Malme-3M = system: Malme-3M
UACC-257 = system: UACC-257
SF-539 = system: SF-539
RXF 393 = system: RXF 393
TK-10 = system: TK-10
KM12 = system: KM12
Hs-578T = system: Hs-578T
HCT-15 = system: HCT-15
NCI/ADR-RES = system: NCI/ADR-RES

Measured: GI50

C/C(=N\NC(=O)N/N=C(\C)c1ccccn1)c1ccccn1
37.8 µM: HCT-15
active: MDA-N 0.114 µM | M14 0.205 µM | SW-620 0.726 µM | NCI-H23 0.15 µM | HT-29 < 0.01 µM | HCT-116 0.336 µM | SK-MEL-5 0.296 µM | HOP-92 0.279 µM | K562 0.118 µM | MDA-MB-435 0.0526 µM | HCC 2998 0.52 µM | SR 0.394 µM | NCI-H460 0.953 µM | COLO 205 0.069 µM | LOX IMVI 0.466 µM | SF-295 0.308 µM | HL-60 0.0767 µM | RPMI-8226 0.0792 µM | HOP-62 0.512 µM | MDA-MB-231 0.333 µM | MOLT-4 0.555 µM | SF-539 0.188 µM | TK-10 0.11 µM | KM12 0.139 µM
inactive: T47D 35.2 µM | SF-268 4.18 µM | SK-OV-3 > 100 µM | UO-31 22.8 µM | UACC-62 40.9 µM | OVCAR-5 > 52.6 µM | OVCAR-3 45.1 µM | SNB-19 2.19 µM | A549 4.88 µM | OVCAR-4 42 µM | CCRF-CEM 9.18 µM | U-251 20.3 µM | SNB-75 > 100 µM | PC-3 37.2 µM | NCI-H226 31 µM | SK-MEL-28 1.92 µM | MCF7 7.16 µM | NCI-H522 67.1 µM | SN12C 2.16 µM | 786-0 2.66 µM | EKVX 19.3 µM | A498 > 71.4 µM | ACHN 18.2 µM | DU-145 43.5 µM | BT-549 1.15 µM | SK-MEL-2 > 100 µM | IGROV-1 6.59 µM | CAKI-1 38.8 µM | OVCAR-8 9.75 µM | Malme-3M > 100 µM | UACC-257 > 100 µM | RXF 393 28.1 µM | Hs-578T > 38.6 µM | NCI/ADR-RES 8.83 µM

COc1ccc2c(c1)CCC(CN1CCN(CCOC(c3ccc(F)cc3)c3ccc(F)cc3)CC1)C2O (configuration not stated)
active: HL-60 0.687 µM
10.4 µM: HCT-15
inactive: T47D 11.2 µM | MDA-N 15.6 µM | SF-268 13.9 µM | SK-OV-3 15.5 µM | M14 12.2 µM | SW-620 21.1 µM | UACC-62 11.5 µM | OVCAR-5 15.2 µM | OVCAR-3 14.9 µM | SNB-19 17.2 µM | NCI-H23 14.5 µM | A549 16.3 µM | HT-29 5.09 µM | HCT-116 11.1 µM | OVCAR-4 14.2 µM | CCRF-CEM 14.9 µM | SK-MEL-5 5.65 µM | U-251 13.3 µM | SNB-75 16.8 µM | PC-3 11.7 µM | HOP-92 12.2 µM | NCI-H226 16 µM | SK-MEL-28 14.6 µM | MCF7 19.3 µM | NCI-H522 14.8 µM | SN12C 17.3 µM | K562 4.51 µM | 786-0 11.7 µM | EKVX 11.6 µM | MDA-MB-435 16 µM | HCC 2998 3.49 µM | SR 6.28 µM | NCI-H460 16.4 µM | A498 3.93 µM | ACHN 5.93 µM | DU-145 18.1 µM | COLO 205 4.59 µM | BT-549 14.4 µM | LOX IMVI 15.3 µM | SK-MEL-2 15 µM | SF-295 17.9 µM | RPMI-8226 6.75 µM | HOP-62 16.1 µM | MDA-MB-231 13.6 µM | IGROV-1 13.8 µM | CAKI-1 15.8 µM | OVCAR-8 13.8 µM | MOLT-4 10.5 µM | Malme-3M 14.4 µM | UACC-257 12.9 µM | SF-539 30.3 µM | RXF 393 12.3 µM | TK-10 15 µM | KM12 19.1 µM | Hs-578T 15.4 µM | NCI/ADR-RES 12.5 µM
